From US11780845B2 (Relay Therapeutics, Inc., priority 2019, dated 2023)

Assays:
SNU16 cells = assay: SNU16 Cancer Cell Line Proliferation Assay; format: cell-based; settings: Homo sapiens; SNU-16 cells
Method in brief: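 Proliferation read-out: CellTiter Glo chemiluminescence after 96 h compound exposure. Test compounds, serially diluted 3-fold over 11 points from a 10 mM DMSO stock, were added to SNU16 cells plated 24 h earlier at 37 degrees.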

FGFR2 = FGFR2 (Homo sapiens (Human), UniProt P21802); assay: FGFR2 Biochemical Caliper Assay
FGFR2, sequence (P21802 22-821): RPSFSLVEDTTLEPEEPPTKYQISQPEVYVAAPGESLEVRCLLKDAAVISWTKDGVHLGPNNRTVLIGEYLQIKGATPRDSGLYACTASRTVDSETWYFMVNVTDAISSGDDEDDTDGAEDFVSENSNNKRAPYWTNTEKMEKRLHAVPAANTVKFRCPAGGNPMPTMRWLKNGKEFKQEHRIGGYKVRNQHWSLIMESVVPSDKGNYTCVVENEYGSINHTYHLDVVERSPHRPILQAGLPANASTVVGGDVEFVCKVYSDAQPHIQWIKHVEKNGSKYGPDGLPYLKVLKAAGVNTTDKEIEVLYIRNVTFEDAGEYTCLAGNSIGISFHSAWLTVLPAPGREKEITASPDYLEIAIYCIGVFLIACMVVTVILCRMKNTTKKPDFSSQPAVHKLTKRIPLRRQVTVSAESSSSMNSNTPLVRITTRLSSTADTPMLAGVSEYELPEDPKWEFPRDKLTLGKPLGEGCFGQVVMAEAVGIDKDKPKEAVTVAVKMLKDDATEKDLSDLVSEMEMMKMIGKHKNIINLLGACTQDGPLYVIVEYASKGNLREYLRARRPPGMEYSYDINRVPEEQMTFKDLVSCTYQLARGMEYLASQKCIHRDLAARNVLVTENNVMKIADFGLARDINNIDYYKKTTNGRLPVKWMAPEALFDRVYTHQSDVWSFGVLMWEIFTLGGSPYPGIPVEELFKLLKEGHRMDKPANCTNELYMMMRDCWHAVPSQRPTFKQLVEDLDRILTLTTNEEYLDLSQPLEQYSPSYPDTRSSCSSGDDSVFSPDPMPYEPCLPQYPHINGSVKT
Description: Compounds of the present invention were also tested in a FGFR2 Biochemical Caliper Assay. Compounds were prepared in 10 mM DMSO solution and serially diluted into 11 concentrations by 3-fold dilution. […] 5 uL of ATP solution (100 uM) was added to start the reaction and the plate was incubated for 90 minutes, then 70 uL of stopping buffer (0.5M EDTA) was added to terminate the reaction. Each well was analyzed using EZ reader.

| SMILES | IC50 (SNU16 cells) [nM] | IC50 (FGFR2) [nM] |
| --- | --- | --- |
| C=C(C)C(=O)Nc1ccc(-c2c(-c3ccc(Oc4cccc(C)n4)cc3)c3c(N)ncnc3n2C)c(C)c1 [Example 384] | ≤ 100 | < 100 |
| C=C(C)C(=O)Nc1ccc(-c2c(-c3ccc(Oc4cccc(C)n4)cc3)c3c(N)ncnc3n2C)cc1C [Example 385] | ≤ 100 | 100 to 250 |
| C=C(C)C(=O)Nc1ccc(-c2c(-c3ccc(C(=O)NC4CCOC4)c(OC)c3)c3c(N)ncnc3n2C)cc1 (stereo not shown) [Example 386] | 100 to 250 | < 100 |
| C=C(C)C(=O)Nc1ccc(-c2c(C3=CCC(C(=O)N4CC5CCC(C5)C4)CC3)c3c(N)ncnc3n2C)cc1 (stereo not shown) [Example 387] | ≤ 100 | 100 to 250 |
| C=C(C)C(=O)Nc1ccc(-c2c(-c3ccc(C(=O)N4CCC[C@@H](OC)C4)cc3)c3c(N)ncnc3n2C)cc1 [Example 388] | 100 to 250 | 250 to 1000 |
| C=C(C)C(=O)Nc1ccc(-c2c(-c3ccc(C(=O)NCC4CCC4)c(OC)c3)c3c(N)ncnc3n2C)cc1 [Example 391] | ≤ 100 | < 100 |
| C=C(C)C(=O)Nc1ccc(-c2c(-c3ccc(Oc4nnc(C)o4)cc3)c3c(N)ncnc3n2C)cc1 [Example 393] | 250 to 1000 | 1000 to 100000 |
| C=C(C)C(=O)Nc1ccc(-c2c(-c3ccc(Oc4cccc(C)n4)c(F)c3)c3c(N)ncnc3n2C)cc1 [Example 395] | ≤ 100 | < 100 |
| C=C(C)C(=O)Nc1ccc(-c2c(-c3ccc(C(=O)NCC4CCC4)nc3)c3c(N)ncnc3n2C)cc1 [Example 399] | ≤ 100 | 100 to 250 |
| C=C(COC)C(=O)Nc1ccc(-c2c(-c3ccc(Oc4cccc(C)n4)cc3)c3c(N)ncnc3n2C)cc1 [Example 401] | ≤ 100 | < 100 |
| C=C(C)C(=O)Nc1ccc(-c2c(-c3ccc(C(=O)N4CCCC4)cc3)c3c(N)ncnc3n2C)c(C)c1 [Example 406] | ≤ 100 | < 100 |
| C=C(C)C(=O)Nc1ccc(-c2c(-c3ccc(C(=O)NCC(C)(C)F)cc3)c3c(N)ncnc3n2C)cc1 [Example 408] | ≤ 100 | < 100 |
| C=C(C)C(=O)Nc1ccc(-c2c(-c3ccc(C(=O)NCC(C)(C)COC)cc3)c3c(N)ncnc3n2C)cc1 [Example 409] | ≤ 100 | < 100 |
| C=C(C)C(=O)Nc1ccc(-c2c(-c3ccc(C(=O)N(C)CC(C)C)cc3)c3c(N)ncnc3n2C)cc1 [Example 410] | ≤ 100 | < 100 |
| C=C(C)C(=O)Nc1ccc(-c2c(-c3ccc(C(=O)N(C)CC4(F)COC4)cc3)c3c(N)ncnc3n2C)cc1 [Example 411] | 250 to 1000 | 250 to 1000 |
| C=C(C)C(=O)Nc1ccc(-c2c(-c3ccc(C(=O)NCC4CCC4)c(F)c3)c3c(N)ncnc3n2C)cc1 [Example 413] | ≤ 100 | < 100 |
| C=C(C)C(=O)Nc1ccc(-c2c(-c3ccc(Oc4cccc(C)n4)cc3)c3c(N)ncnc3n2C2COC2)cc1 [Example 415] | ≤ 100 | < 100 |
| C=C(C)C(=O)Nc1ccc(-c2c(-c3ccc(C(=O)NCC(C)(C)OC)c(F)c3)c3c(N)ncnc3n2C)cc1 [Example 416] | ≤ 100 | < 100 |
| C=C(C)C(=O)Nc1ccc(-c2c(-c3ccc(Oc4cccc(COC)n4)cc3)c3c(N)ncnc3n2C)cc1 [Example 417] | ≤ 100 | < 100 |

| SMILES | IC50 (SNU16 cells) [nM] | IC50 (FGFR2) [nM] |
| --- | --- | --- |
| C=C(C)C(=O)Nc1ccc(-c2c(-c3ccc(Oc4cccc(CO)n4)cc3)c3c(N)ncnc3n2C)cc1 [Example 418] | ≤ 100 | < 100 |
| C=C(C)C(=O)Nc1ccc(-c2c(C3=CC[C@@H](C(=O)N4CC5CCC(C5)C4)CC3)c3c(N)ncnc3n2C)cc1 [Example 419] | ≤ 100 | < 100 |
| C=C(C)C(=O)Nc1ccc(-c2c(-c3cc(F)c(Oc4ncc(C)cn4)c(F)c3)c3c(N)ncnc3n2C)cc1 [Example 423] | 100 to 250 | < 100 |
| C=C(C)C(=O)Nc1ccc(-c2c(-c3ccc(Oc4ncc(F)cn4)c(C)c3)c3c(N)ncnc3n2C)c(F)c1 [Example 424] | ≤ 100 | < 100 |
| C=C(C)C(=O)Nc1ccc(-c2c(-c3ccc(Oc4nccc(C)n4)cc3F)c3c(N)ncnc3n2C)cc1 [Example 425] | ≤ 100 | < 100 |
| C=C(C)C(=O)Nc1ccc(-c2c(-c3ccc(Oc4nccc(C)n4)cc3)c3c(N)ncnc3n2C)c(F)c1 [Example 426] | ≤ 100 | < 100 |
| C=C(C)C(=O)Nc1ccc(-c2c(-c3ccc(Oc4ncc(F)cn4)cc3)c3c(N)ncnc3n2C)c(F)c1 [Example 427] | ≤ 100 | < 100 |
| C=C(C)C(=O)Nc1ccc(-c2c(-c3ccc(Oc4ncc(F)cn4)cc3)c3c(N)ncnc3n2C)cc1 [Example 428] | ≤ 100 | < 100 |
| C=C(C)C(=O)Nc1ccc(-c2c(-c3ccc(Oc4ncc(F)cn4)c(C#N)c3)c3c(N)ncnc3n2C)cc1 [Example 429] | 100 to 250 | 100 to 250 |
| C=C(C)C(=O)Nc1ccc(-c2c(-c3ccc(C(=O)N4CCCC4)cc3)c3c(N)ncnc3n2C)c(OC)c1 [Example 433] | ≤ 100 | < 100 |
| C=C(C)C(=O)Nc1ccc(-c2c(-c3ccc(C(=O)N4CCCC4)cc3)c3c(N)ncnc3n2C)c(Cl)c1 [Example 434] | ≤ 100 | < 100 |
| C=C(C)C(=O)Nc1ccc(-c2c(-c3ccc(C(=O)N4CCCC4)cc3)c3c(N)ncnc3n2C)c(C#N)c1 [Example 435] | 100 to 250 | < 100 |
| C=C(C)C(=O)Nc1ccc(-c2c(-c3ccc(C(=O)N4CCCC4)cc3)c3c(N)ncnc3n2C)c(C(F)F)c1 [Example 436] | 100 to 250 | < 100 |
| C=C(C)C(=O)Nc1ccc(-c2c(-c3ccc(C(=O)N4CCC[C@H]4C#N)c(F)c3)c3c(N)ncnc3n2C)cc1 [Example 437] | ≤ 100 | < 100 |
| C=C(C)C(=O)Nc1ccc(-c2c(-c3ccc(Oc4cccc(C)n4)nc3)c3c(N)ncnc3n2C)cc1 [Example 441] | 250 to 1000 | 250 to 1000 |
| C=C(C)C(=O)Nc1ccc(-c2c(-c3ccc(Oc4cccc(C)n4)cc3F)c3c(N)ncnc3n2C)cc1 [Example 442] | ≤ 100 | < 100 |
| C=C(C)C(=O)Nc1ccc(-c2c(-c3ccc(Oc4nccc(C)n4)c(OC)c3)c3c(N)ncnc3n2C)c(F)c1 [Example 444] | ≤ 100 | < 100 |
| C=C(C)C(=O)Nc1ccc(-c2c(-c3ccc(Oc4cccc(C)n4)c(C#N)c3)c3c(N)ncnc3n2C)cc1 [Example 445] | ≤ 100 | < 100 |

Second part, the molecule after the results:

| IC50 (SNU16 cells) [nM] | IC50 (FGFR2) [nM] | SMILES |
| --- | --- | --- |
| ≤ 100 | 100 to 250 | C=C(C)C(=O)Nc1ccc(-c2c(-c3ccc(Oc4nccc(C)n4)c(OC)c3)c3c(N)ncnc3n2C)cc1 [Example 446] |
| ≤ 100 | < 100 | C=C(C)C(=O)Nc1ccc(-c2c(-c3cc(F)c(Oc4nccc(C)n4)c(F)c3)c3c(N)ncnc3n2C)cc1 [Example 447] |
| 100 to 250 | 250 to 1000 | C=C(C)C(=O)Nc1ccc(-c2c(-c3ccc(Oc4ncc(F)cn4)c(OC)c3)c3c(N)ncnc3n2C)cc1 [Example 448] |
| 100 to 250 | 250 to 1000 | C=C(C)C(=O)Nc1ccc(-c2c(-c3ccc(Oc4ncc(OC)cn4)c(F)c3)c3c(N)ncnc3n2C)cc1 [Example 449] |
| ≤ 100 | 100 to 250 | C=C(C)C(=O)Nc1ccc(-c2c(C3=CCC(Oc4ncc(F)cn4)CC3)c3c(N)ncnc3n2C)cc1 (stereo not shown) [Example 458] |
| ≤ 100 | < 100 | C=C(C)C(=O)Nc1ccc(-c2c(-c3ccc(C(=O)N4CCC[C@H]4C#N)cc3)c3c(N)ncnc3n2C)c(F)c1 [Example 459] |
| ≤ 100 | < 100 | C=C(C)C(=O)Nc1ccc(-c2c(-c3ccc(Oc4cccc(C)n4)cn3)c3c(N)ncnc3n2C)cc1 [Example 460] |
| ≤ 100 | < 100 | C=C(C)C(=O)Nc1ccc(-c2c(-c3ccc(C(=O)N4CCC5CC54)cc3)c3c(N)ncnc3n2C)c(F)c1 (stereo not shown) [Example 461] |
| ≤ 100 | < 100 | C=C(C)C(=O)Nc1ccc(-c2c(-c3ccc(C(=O)N4CCCC[C@H]4C)cc3)c3c(N)ncnc3n2C)c(F)c1 [Example 462] |
| ≤ 100 | < 100 | C=C(C)C(=O)Nc1ccc(-c2c(-c3ccc(C(=O)N4CC5CC4C5)cc3)c3c(N)ncnc3n2C)c(F)c1 [Example 463] |
| ≤ 100 | < 100 | C=C(C)C(=O)Nc1ccc(-c2c(-c3ccc(C(=O)N(C)CC4(C#N)CC4)cc3)c3c(N)ncnc3n2C)c(F)c1 [Example 465] |
| ≤ 100 | < 100 | C=C(C)C(=O)Nc1ccc(-c2c(-c3ccc(C(=O)N(C)Cc4nc(C)no4)cc3)c3c(N)ncnc3n2C)c(F)c1 [Example 468] |
| 100 to 250 | 100 to 250 | C=C(C)C(=O)Nc1ccc(-c2c(-c3ccc(C(=O)c4nccc(C)n4)cc3C)c3c(N)ncnc3n2C)cc1 [Example 471] |
| ≤ 100 | < 100 | C=C(C)C(=O)Nc1ccc(-c2c(-c3ccc(Oc4ncc(F)cn4)cn3)c3c(N)ncnc3n2C)cc1 [Example 474] |
| 250 to 1000 | 1000 to 100000 | C=C(C)C(=O)Nc1ccc(-c2c(-c3ccc(Oc4cccc(C)n4)c(CN(C)C)c3)c3c(N)ncnc3n2C)cc1 [Example 475] |
| ≤ 100 | < 100 | Cc1cccc(Oc2ccc(-c3c(-c4ccc(NC#N)cc4)n(C)c4ncnc(N)c34)cc2)n1 [Example 476] |
| ≤ 100 | < 100 | C=C(C)C(=O)Nc1ccc(-c2c(-c3ccc(Oc4nccc(C)n4)c(C)c3)c3c(N)ncnc3n2C)c(F)c1 [Example 479] |
| ≤ 100 | < 100 | C=C(C)C(=O)Nc1ccc(-c2c(-c3ccc(Oc4nccc(C)n4)c(F)c3)c3c(N)ncnc3n2C)c(F)c1 [Example 482] |
| ≤ 100 | < 100 | C=C(C)C(=O)Nc1ccc(-c2c(-c3ccc(Oc4nccc(C)n4)c(C)c3)c3c(N)ncnc3n2C)cc1 [Example 484] |
